Measurements reported in patent publication US20110002820A1, “EXTERIOR SURFACE TREATMENT SYSTEM” (priority 2008, published 2011).

Tests used:
Format in all cases: cell-based
Chlorella vulgaris = assay: Algistatic concentration against algae
Aspergillus niger = assay: Fungicidal activity, minimum inhibitory concentration against fungi
Anabaena cylindrica = assay: Algistatic concentration against algae
Oscillatoria tenius = assay: Algistatic concentration against algae
Myrothecium verrucaria = assay: Fungicidal activity, minimum inhibitory concentration against fungi
Chaetomium globosum = assay: as above
Trichoderma viridae = assay: as above
Stiegeocionim sp. = assay: Algistatic concentration against algae

| Compound | Algistatic concentration (Chlorella vulgaris) [ppm] | MIC (Aspergillus niger) [mg/L] | Algistatic concentration (Anabaena cylindrica) [ppm] | Algistatic concentration (Oscillatoria tenius) [ppm] | MIC (Myrothecium verrucaria; Albifimbria verrucaria) [mg/L] | MIC (Chaetomium globosum) [mg/L] | MIC (Trichoderma viridae) [mg/L] | Algistatic concentration (Stiegeocionim sp.) [ppm] | Minimum inhibitory concentration (Aspergillus niger) [ppm] | Minimum inhibitory concentration (Myrothecium verrucaria) [ppm] | Minimum inhibitory concentration (Chaetomium globosum) [ppm] | Minimum inhibitory concentration (Trichoderma viridae) [ppm] |
| --- | --- | --- | --- | --- | --- | --- | --- | --- | --- | --- | --- | --- |
| CCCCCCCCCC[N+](C)(C)CCCCCCCCCC.[Cl-] [DDAC, didecyl dimethyl ammonium chloride] | 2.0 | 75 | 0.2 | 0.7 | 20 | 7 | 20 | 0.7 | – | – | – | – |
| benzalkonium chloride [BAC] | 1.0 | – | 1.0 | 0.6 | – | – | – | 0.7 | 75 | 150 | 7 | 75 |
